For assay [1], the system named is flies expressing human AR52Q in pan-neuronal tissues (ELAV>UAS-AR52Q). Nature of the assay: Viability of SBMA flies (rescue of DHT-induced lethality). The assay is classed as in vivo, Drosophila. The note with it: flies reared on food containing 1 mM DHT and compound (TA, MEPB 0 to 400 μM). An excerpt: UAS-AR52Q, UAS-AR52Q-K720A, and UAS-AR66Q-E897K fly stocks were generated as previously described^8. Fly stocks were crossed to various GAL4 driver lines (ELAV-GAL4 for pan-neuronal, OK371-GAL4 for motor neuron, GMR-GAL4 for eye) to induce expression of the AR transgene in a tissue-specific manner in fly vials containing fly food with either vehicle (1% ethanol +/−0.1% DMSO) or drugs. Upon the presence of progeny, parental flies were removed, and F1 flies were scored for phenotypic analysis. Viability was determined as previously described^40. Briefly, the population frequency of adult F1 SBMA flies (ELAV>UAS-AR52Q or OK371>UAS-AR52Q) and control flies (GAL4-ELAV; CyO-GFP) were determined by the presence or absence of the CyO phenotypic marker. At least three independent biological replicates (F0 crosses) were performed with new drug/food preparations for each treatment group, and a total of at least 50 flies were scored for each treatment group. To determine locomotor activity of SBMA flies, adult F1 flies (OK371>UAS-AR52Q) reared on food containing vehicle or drug were allowed to walk for 90 seconds in one well of a 12-well tissue culture plate while video was recorded using a Leica M205C stereomicroscope and Leica DFC320 digital camera. Videos were recorded for at least 15 flies per treatment group. Tracing of fly movement and analysis of displacement and velocity were performed using ImageJ software. Preparation and staining of larval neuromuscular junctions and ventral ganglions were performed as previously described^8.

In another assay the test system is AR121Q mice. Nature of the assay: Pilot preclinical trial in AR121Q (SBMA) mice. The note with it: male SBMA mice; 50 mg/kg intraperitoneally three times per week, 3 to 8 weeks of age. Type of assay: in vivo, mouse. How it is done: To determine the efficacy of TA and/or MEPB in a mouse model of SBMA, we first performed a pilot study. Five mice were assigned to each drug treatment group: 50 mg/kg TA, 50 mg/kg MEPB, or vehicle (1% DMSO in corn oil). Drug identities were coded to ensure investigator blinding, and drugs were administered three times per week (Monday, Wednesday, and Friday) by intraperitoneal injection from 3 to 8 weeks of age. At 8 weeks, all mice were sacrificed and tissues were collected for pathologic analysis. To fully characterize the efficacy of MEPB in SBMA mice, a large-scale, multi-dose preclinical trial was performed. A power analysis (Table 1) was performed based on the pilot study data to determine the adequate number of mice required for 80% power. At least 10 mice were assigned to each drug treatment group: 50 mg/kg MEPB, 100 mg/kg MEPB, and vehicle (1% DMSO in corn oil). Drug identities were coded to ensure investigator blinding, and drugs were administered three times per week (Monday, Wednesday, and Friday) by intraperitoneal injections from 4 weeks until 30 weeks of age.
Body weight, rotarod activity, and grip strength data were collected weekly. Footprint analysis and clasping phenotype were assessed at 7 and 8 weeks of age. Body weight was measured using a standard laboratory scale (Fisher Scientific). Rotarod activity analysis was performed on an accelerating rotarod apparatus (IITC Life Science) using a two-day, weekly protocol. Mice were trained on the first day with one session set at 4 rpm for 5 min. The following day, mice were placed on the apparatus, rotation speed was set to accelerate from 4-40 rpm at a rate of 0.1 rpm/s, and the latency to fall was recorded for four separate trials per mouse. Mice were given a 15-min rest period between each trial. Grip strength was measured using a grip strength meter (Bioseb). Grip strength was measured as grams of force in six repeated measurements for forepaws and hindpaws of each animal. To perform gait/footprint analysis, the forepaws and hindpaws of each animal were dipped in red and blue, respectively, water-soluble, non-toxic paint. The animal was then placed in a 70-cm long tunnel lined on the bottom with Whatman filter paper, the entrance was sealed, and the animal was allowed to walk through one time. Footprints were scanned and analyzed with Image J for stride length and forepaw/hindpaw overlap^41. To determine clasping phenotype, mice were recorded using an Apple iPod camera (iOS version 6.1.6) for approximately 60 seconds and still frames were extracted using ImageJ.
A separate cohort of five mice per treatment group was generated for pathologic and biochemical analysis. Mice were anesthetized by isoflurane inhalation and transcardially perfused with either PBS for frozen tissue samples or 10% formalin for fixed tissue samples. Selected tissues (brain, spinal cord, gastrocnemius/soleus muscle, testes, and liver) were dissected and either snap-frozen in liquid nitrogen or processed for paraffin embedding/sectioning. Tissue sections were stained with hematoxylin and eosin, toluidine blue, or Gomori trichrome to ascertain overall morphology and pathologic changes. To determine AR staining and colocalization patterns, tissue sections were stained with anti-AR (N20, Santa Cruz), anti-polyQ (5TF1-1C2, EMD Millipore), or anti-ubiquitin (Cell Signaling Technology) antibodies. To quantify type I and type II myofibers, hindlimb tissue sections were stained with myosin heavy chain-slow twitch and myosin heavy chain-fast twitch antibodies (Leica Biosystems), respectively. For the purposes of counting ChAT-positive neurons, three stepped sections separated by 50 μm were analyzed for the cervical, thoracic, and lumbosacral areas of spinal cords. The slides contained three to six tissue sections at each level and were labeled with an anti-ChAT antibody (EMD Millipore). […]

Each structure is given as a SMILES string.

`Cc1ccc(OCCn2c(SCCOc3ccccc3)nc3ccccc32)cc1` [MEPB, 1-[2-(4-methylphenoxy)ethyl]-2-[(2-phenoxyethyl)sulfanyl]-1H-benzimidazole]: the SBMA fly viability result in assay [1] is on record as “significantly increased SBMA fly viability in a dose-dependent manner”. Also, in the assay with AR121Q mice, the body weight result is listed as “significantly improved”; the “gait and hindlimb clasping” value is “improved gait and hindlimb clasping”; the grip strength entry is “significantly improved”; the “pathologic appearance of skeletal muscle and spinal cord degeneration” value is listed as “qualitatively recovered”. For the same compound, in the assay on AR121Q mice, the rotarod activity result was “significantly improved” and the survival result is “no significant change in survival”.
Regarding `Cc1c(Cl)cccc1Nc1ccccc1C(=O)O` [TA, tolfenamic acid], in assay [1], the SBMA fly viability result is reported as “significantly increased SBMA fly viability in a dose-dependent manner”. Moreover, the “any measurements of SBMA-associated degeneration” value in the assay with AR121Q mice is “did not significantly alter any measurements of SBMA-associated degeneration”.

The values above are taken from US11707449B2, “Methods and formulations for treatment of spinobulbar muscular atrophy” (ST. JUDE CHILDREN'S RESEARCH HOSPITAL, INC., priority 2017, dated 2023).
